Source: US6395775B1, “Combating pest insects” (priority 1995, dated 2002)
“Also recorded” adds a separate entry of the source.

How the values were obtained:
[1] = test system: codling moth, Cydia pomonella; assay: Pheromone trap catch test; type: in vivo; settings: for behavioural effect on codling moth in pheromone traps: isomer of the acetate combined with E8,E10-dodecadien-1-ol in traps
From the text: Pheromone traps were loaded with the pheromone, E8,E10-dodecadien-1-ol of the codling moth, (FIG. 1A). In other traps the alcohol was combined with the corresponding acetate (FIG. 1B). At a blend of 20% of the acetate the catch decreased to ⅛ (dark column).

C. pomonella males = assay: Wind tunnel experiments, male attraction; type: in vivo, Cydia pomonella; settings: codlemone 10 pg/min; E8,Z10-dodecadien-1-ol added at 3% by weight or E8,E10-dodecadienyl acetate at 1% by weight; n=60
From the text: Tests were done in a wind tunnel with a flight section of 63 by 90 by 200 cm. Dilutions of synthetic compounds in redistilled ethanol were released from an ultrasound evaporator (Gödde et al. 1999). A motor-driven syringe delivered pheromone solutions in ethanol, through micro-tubing, to a glass capillary tube with a 40 μm tip. A piezo-ceramic disc vibrates the tip of the capillary tube at 100-140 kHz, and the pheromone solution evaporates within a few cm of the tip of the capillary.
The main compound codlemone, E8,E10-dodecadien-1-ol, was applied at a rate of 10 pg/min, E8,Z10-dodecadien-1-ol was added at 3% by weight (FIG. 2), E8,E10-dodecadienyl acetate was added at 1% by weight (FIG. 3).
Test sessions started 1 h after lights off and lasted 3 to 4 h. Two-day-old males were placed individually in glass tubes (15 by 2.5 cm) stoppered with gauze, 15 min prior to testing. Males were released individually and were allowed 2 min to respond. Treatments were tested on 4 days with 15 males/day (n=60).
The sequence of male behaviours elicited by perception of sex pheromone includes activation from rest and taking flight, upwind-oriented flight towards the pheromone source, landing at the pheromone source, and display of courtship behaviors close to the source (walking while wingfanning) (FIGS. 2 and 3). These behaviors are followed by mating, if the pheromone source is a calling female.

codling moth = settings: cited from earlier work; for previous classification of behavioural role: Hathaway et al. 1974, Witzgall et al. 1996a, El-Sayed et al. 1998
[2] = test system: codling moth, Cydia pomonella; assay: Confusion test in 100 m^2 test areas in a fruit orchard; type: in vivo; settings: for confusing effect (males trapped compared with non-treated control square): four dispensing means in the corners, pheromone trap in the center
Method: In another test a confusion test was carried out in 100 m^2 quadratic test areas in a fruit orchard. […] In the respective center of each square, a pheromone trap loaded with the sex pheromone, E8, E10-dodecadien-1-ol of the codling moth, was placed. The confusing effect was calculated as the number of males trapped in the trap compared with the number trapped in a trap in a non-treated control square, i.e. without any behavior antagonist in the respective corner. […] The sex pheromone of the codling moth, the alcohol, is as already mentioned, in commercial use. The inhibiting results are, however, not always satisfying, (Cardé & Minks, 1995, “Control of moth pests by mating disruption. Successes and constraints”, Ann. Rev. Entomol. 49:559-585) in particular not in fruit orchards having high trees and a high population density. […] Probably, the concentration of pheromone from located dispensing means so low there, that the attracting power of the pheromone dominates its confusing effect. Males circulating in the tree tops may also be caught in lower placed traps which indicates a lacking confusing effect. […] Several of the males caught in pheromone traps in such treated squares can be seen flying some meters above the ground and straight into the trap. They never arrived from the top of the trees.

Compound	behavioural effect on codling moth in pheromone traps [1]	male attraction and close range behaviours at the pheromone source, compared to E8,E10-dodecadien-1-ol alone (C. pomonella males)	previous classification of behavioural role (codling moth)	confusing effect (males trapped compared with non-treated control square) [2]	also measured
CC=CC=CCCCCCCCOC(C)=O [ZZ]	–	–	–	–	behavioural effect on codling moth in pheromone traps ([1]; listed as zz-isomer): most powerful of the four isomers
CC=CC=CCCCCCCCOC(C)=O [EZ]	behaviour antagonists	–	–	–	–
C/C=C/C=C\CCCCCCCOC(C)=O [ZE]	behaviour antagonists	–	–	–	–
C/C=C/C=C/CCCCCCCOC(C)=O [E8,E10-dodecadien-1-yl acetate]	behaviour antagonist	enhances male attraction and close range behaviours; also recorded: acts as an antagonist when present in high amounts, and as a synergist when present in lower amounts	pheromone antagonists	strong confusing effect	catch in pheromone traps, decrease relative to E8,E10-dodecadien-1-ol alone ([1]; alcohol combined with the acetate, blend of 20% of the acetate): ⅛
C/C=C/C=C/CCCCCCCO [E8,E10-dodecadien-1-ol]	–	–	–	strong confusing effect	attraction of the codling moth by geometric isomers of the alcohol (codling moth; Roelofs et al (1972)): very attractive; observation of males in the tree tops of treated squares ([2]; fruit orchards having high trees and a high population density): males are attracted to the tree tops
C/C=C\C=C\CCCCCCCO [E8,Z10-dodecadien-1-ol]	–	enhances male attraction and close range behaviours	pheromone antagonists	–	–
